Data from US8258134B2, “Pyridazinone glucokinase activators” (Hoffmann-La Roche Inc., priority 2008, dated 2012).

target: T1, Recombinant human liver GK1 (GST-GK) (Homo sapiens, UniProt P35557); experiment: Glucokinase in vitro assay (G6PDH-coupled NADH generation, OD340); type: biochemical; settings: 5 mM D-glucose, 30° C., pH 7.1, 10% DMSO
T1 construct: made in house; host or cells: E. coli
T1 sequence (P35557 1-466 isoform P35557-2): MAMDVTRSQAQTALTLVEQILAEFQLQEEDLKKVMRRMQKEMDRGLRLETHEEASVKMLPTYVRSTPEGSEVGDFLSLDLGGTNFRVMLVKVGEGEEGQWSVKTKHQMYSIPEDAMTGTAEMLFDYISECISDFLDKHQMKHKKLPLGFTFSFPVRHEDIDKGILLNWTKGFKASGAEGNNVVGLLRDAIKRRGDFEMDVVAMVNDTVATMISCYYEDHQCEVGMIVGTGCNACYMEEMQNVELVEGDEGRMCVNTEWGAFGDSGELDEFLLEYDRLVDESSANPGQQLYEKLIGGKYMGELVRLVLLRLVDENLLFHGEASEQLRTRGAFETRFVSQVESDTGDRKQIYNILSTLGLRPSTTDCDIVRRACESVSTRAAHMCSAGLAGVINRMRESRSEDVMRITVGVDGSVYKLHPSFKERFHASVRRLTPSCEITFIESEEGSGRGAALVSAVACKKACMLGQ
Procedure: Glucokinase In Vitro Assay Protocol: Glucokinase (GK) was assayed by coupling the production of glucose-6-phosphate to the generation of NADH with glucose-6-phosphate dehydrogenase (G6PDH, 0.75-1 k units/mg; Boehringer Mannheim, Indianapolis, Ind.) from Leuconostoc mesenteroides as the coupling enzyme (Scheme 2):
Recombinant human liver GK1 was expressed in E. coli as a glutathione S-transferase fusion protein (GST-GK) [Liang et al, 1995] and was purified by chromatography over a glutathione-Sepharose 4B affinity column using the procedure provided by the manufacturer (Amersham Pharmacia Biotech, Piscataway, N.J.).
The assay was conducted at 30° C. in a flat bottom 96-well tissue culture plate from Costar (Cambridge, Mass.) with a final incubation volume of 120 μL. The incubation reaction contained the following: 25 mM Hepes buffer (pH 7.1), 25 mM KCl, 5 mM D-glucose, 1 mM ATP, 1.8 mM NAD, 2 mM MgCl2, 1 μM sorbitol-6-phosphate, 1 mM dithiothreitol, test drug or 10% DMSO, ˜7 units/ml G6PDH, and GK (see below). All organic reagents were >98% pure and were from Boehringer Mannheim with the exceptions of D-glucose and Hepes which were from Sigma Chemical Co, St Louis, Mo. Test compounds were dissolved in DMSO and were added to the incubation reaction minus GST-GK in a volume of 12 μL to yield a final DMSO concentration of 10%. This mix was pre-incubated in the temperature controlled chamber of a SPECTRAmax 250 microplate spectrophotometer (Molecular Devices Corporation, Sunnyvale, Calif.) for 10 minutes to allow temperature equilibrium and then the reaction was started by the addition of 20 μL GST-GK.
After addition of enzyme, the increase in optical density (OD) at 340 nm was monitored spectrophotometrically to determine the rate of change (OD340 per min). The GK activity (OD340/min) in control wells (10% DMSO minus GK activators) was compared with the activity in wells containing test GK activators, and the concentration of activator that produced a 50% increase in the activity of GK, i.e., the SC1.5, was calculated. The table below provides the in vitro glucokinase activity for the compounds in the Examples: […]

Structure (SMILES)	SC1.5 average (concentration of activator that produced a 50% increase in the activity of GK) [µM]
O=C(Nc1cnc(C(O)CO)cn1)C(CC1CCCC1)n1ncc(Oc2c(F)cccc2F)cc1=O (stereo in doubt) [Example 106, 3-Cyclopentyl-2-[4-(2,6-difluoro-phenoxy)-6-oxo-6H-pyridazin-1-yl]-N-[5-((R)-1,2-dihydroxy-ethyl)-pyrazin-2-yl]-propionamide]	0.082
CC(C)(O)Cn1ccc(NC(=O)C(CC2CCCC2)n2ncc(Oc3ccccc3)cc2=O)n1 (stereo not drawn) [Example 1, 3-Cyclopentyl-N-[1-(2-hydroxy-2-methyl-propyl)-1H-pyrazol-3-yl]-2-(6-oxo-4-phenoxy-6H-pyridazin-1-yl)-propionamide]	0.707
Cc1nsc(NC(=O)C(CC2CCCC2)n2ncc(Oc3ccccc3)cc2=O)n1 (stereo not drawn) [Example 3, 3-Cyclopentyl-N-(3-methyl-[1,2,4]thiadiazol-5-yl)-2-(6-oxo-4-phenoxy-6H-pyridazin-1-yl)-propionamide]	2.07
Cc1nnc(NC(=O)C(CC2CCCC2)n2ncc(Oc3ccccc3)cc2=O)s1 (stereo not drawn) [Example 4, 3-Cyclopentyl-N-(5-methyl-[1,3,4]thiadiazol-2-yl)-2-(6-oxo-4-phenoxy-6H-pyridazin-1-yl)-propionamide]	6.205
CC(C)(O)Cn1ccc(NC(=O)C(CC2CCCC2)n2ncc(Oc3ccc(C(F)(F)F)cc3)cc2=O)n1 (stereo not drawn) [Example 5, 3-Cyclopentyl-N-[1-(2-hydroxy-2-methyl-propyl)-1H-pyrazol-3-yl]-2-[6-oxo-4-(4-trifluoromethyl-phenoxy)-6H-pyridazin-1-yl]-propionamide]	2.267
CC(C)(O)Cn1ccc(NC(=O)C(CC2CCCC2)n2ncc(Oc3cccc(C(F)(F)F)c3)cc2=O)n1 (stereo not drawn) [Example 6, 3-Cyclopentyl-N-[1-(2-hydroxy-2-methyl-propyl)-1H-pyrazol-3-yl]-2-[6-oxo-4-(3-trifluoromethyl-phenoxy)-6H-pyridazin-1-yl]-propionamide]	0.844
COc1cccc(Oc2cnn(C(CC3CCCC3)C(=O)Nc3ccn(CC(C)(C)O)n3)c(=O)c2)c1 (stereo not drawn) [Example 7, 3-Cyclopentyl-N-[1-(2-hydroxy-2-methyl-propyl)-1H-pyrazol-3-yl]-2-[4-(3-methoxy-phenoxy)-6-oxo-6H-pyridazin-1-yl]-propionamide]	0.428
CC(C)(O)Cn1ccc(NC(=O)C(CC2CCCC2)n2ncc(OCC3CCCC3)cc2=O)n1 (stereo not drawn) [Example 9, 3-Cyclopentyl-2-(4-cyclopentylmethoxy-6-oxo-6H-pyridazin-1-yl)-N-[1-(2-hydroxy-2-methyl-propyl)-1H-pyrazol-3-yl]-propionamide]	1.548
CC(C)(O)Cn1ccc(NC(=O)C(CC2CCCC2)n2ncc(OCC3CCCC3)c(Cl)c2=O)n1 (stereo not drawn) [Example 10, 2-(5-Chloro-4-cyclopentylmethoxy-6-oxo-6H-pyridazin-1-yl)-3-cyclopentyl-N-[1-(2-hydroxy-2-methyl-propyl)-1H-pyrazol-3-yl]-propionamide]	11.438
COc1ccc(Oc2cnn(C(CC3CCCC3)C(=O)Nc3ccn(CC(C)(C)O)n3)c(=O)c2)cc1 (stereo not drawn) [Example 15, 3-Cyclopentyl-N-[1-(2-hydroxy-2-methyl-propyl)-1H-pyrazol-3-yl]-2-[4-(4-methoxy-phenoxy)-6-oxo-6H-pyridazin-1-yl]-propionamide]	1.025
COC(=O)c1cc(NC(=O)C(CC2CCCC2)n2ncc(Oc3ccccc3C(F)(F)F)cc2=O)nn1C (stereo not drawn) [Example 16, 5-{3-Cyclopentyl-2-[6-oxo-4-(2-trifluoromethyl-phenoxy)-6H-pyridazin-1-yl]-propionylamino}-2-methyl-2H-pyrazole-3-carboxylic acid methyl ester]	4.548
CC(C)(O)Cn1ccc(NC(=O)C(CC2CCCC2)n2ncc(Oc3cccc(F)c3)cc2=O)n1 (stereo not drawn) [Example 18, 3-Cyclopentyl-2-[4-(3-fluoro-phenoxy)-6-oxo-6H-pyridazin-1-yl]-N-[1-(2-hydroxy-2-methyl-propyl)-1H-pyrazol-3-yl]-propionamide]	0.634
CC(C)(O)Cn1ccc(NC(=O)C(CC2CCCC2)n2ncc(Oc3cccc4ccccc34)cc2=O)n1 (stereo not drawn) [Example 20]	0.058
CC(C)(O)Cn1ccc(NC(=O)C(CC2CCCC2)n2ncc(Oc3ccccc3C3CCCCC3)cc2=O)n1 (stereo not drawn) [Example 21, 2-[4-(2-Cyclohexyl-phenoxy)-6-oxo-6H-pyridazin-1-yl]-3-cyclopentyl-N-[1-(2-hydroxy-2-methyl-propyl)-1H-pyrazol-3-yl]-propionamide]	0.873

Further lines, results first:

SC1.5 average (concentration of activator that produced a 50% increase in the activity of GK) [µM]	Structure (SMILES)
0.099	CC(C)(O)Cn1ccc(NC(=O)[C@H](CC2CCCC2)n2ncc(Oc3ccccc3C(F)(F)F)cc2=O)n1 [Example 11A, (S)-3-Cyclopentyl-N-[1-(2-hydroxy-2-methyl-propyl)-1H-pyrazol-3-yl]-2-[6-oxo-4-(2-trifluoromethyl-phenoxy)-6H-pyridazin-1-yl]-propionamide]
6.893	CC(C)(O)Cn1ccc(NC(=O)[C@@H](CC2CCCC2)n2ncc(Oc3ccccc3C(F)(F)F)cc2=O)n1 [Example 11B, (R)-3-Cyclopentyl-N-[1-(2-hydroxy-2-methyl-propyl)-1H-pyrazol-3-yl]-2-[6-oxo-4-(2-trifluoromethyl-phenoxy)-6H-pyridazin-1-yl]-propionamide]
0.051	CC(C)(O)Cn1ccc(NC(=O)[C@H](CC2CCCC2)n2ncc(Oc3cccc4c3CCCC4)cc2=O)n1 [Example 17A, (S)-3-Cyclopentyl-N-[1-(2-hydroxy-2-methyl-propyl)-1H-pyrazol-3-yl]-2-[6-oxo-4-(5,6,7,8-tetrahydro-naphthalen-1-yloxy)-6H-pyridazin-1-yl]-propionamide]
9.14	CC(C)(O)Cn1ccc(NC(=O)[C@@H](CC2CCCC2)n2ncc(Oc3cccc4c3CCCC4)cc2=O)n1 [Example 17B, (R)-3-Cyclopentyl-N-[1-(2-hydroxy-2-methyl-propyl)-1H-pyrazol-3-yl]-2-[6-oxo-4-(5,6,7,8-tetrahydro-naphthalen-1-yloxy)-6H-pyridazin-1-yl]-propionamide]
0.104	CC(C)(O)Cn1ccc(NC(=O)[C@H](CC2CCCC2)n2ncc(Oc3ccccc3F)cc2=O)n1 [Example 19A, (S)-3-Cyclopentyl-2-[4-(2-fluoro-phenoxy)-6-oxo-6H-pyridazin-1-yl]-N-[1-(2-hydroxy-2-methyl-propyl)-1H-pyrazol-3-yl]-propionamide]
3.411	CC(C)(O)Cn1ccc(NC(=O)[C@@H](CC2CCCC2)n2ncc(Oc3ccccc3F)cc2=O)n1 [Example 19B, (R)-3-Cyclopentyl-2-[4-(2-fluoro-phenoxy)-6-oxo-6H-pyridazin-1-yl]-N-[1-(2-hydroxy-2-methyl-propyl)-1H-pyrazol-3-yl]-propionamide]
0.263	CC(C)(O)Cn1ccc(NC(=O)[C@H](CC2CCCC2)n2ncc(Oc3ccccc3C3CCCC3)cc2=O)n1 [Example 22A, (S)-3-Cyclopentyl-2-[4-(2-cyclopentyl-phenoxy)-6-oxo-6H-pyridazin-1-yl]-N-[1-(2-hydroxy-2-methyl-propyl)-1H-pyrazol-3-yl]-propionamide]
